# Where two headings read alike, the source gives them in different places.
# Assays:
# C. xerosis DSM 20170 [1] = experiment: Bacteriostatic activity (MIC), microtiter turbidity; type: cell-based; details: Corynebacterium xerosis, read-out: MIC C. xerosis DSM 20170
# Description: (§1) The different axilla bacteria are isolated from the human axilla according to techniques known in the art, in particular according to standard microbiological practice. They are taxonomically identified by cell morphology, gram-reaction and biochemical tests included in the Api coryne test kit (BioMerieux, France). Strain Staphylococcus epidermidis Ax25 is identified by fatty acid methyl ester analysis (FAME; German type strain collection DSMZ, Germany).
# (§2) The strains are maintained on Tryptic soy broth plates, this standard medium being supplemented with 5 g per litre of Polyoxyethylene Sorbitan Monooleate (Tween™ 80). Plates are incubated at 36° C. for a period 48 hours. The bacteria are then swabbed from the plates and suspended in 4 ml of Müller-Hinton broth supplemented with 100 mg of Tween™ 80 per litre (MH-Tween™) and incubated again at 36° C. for 16 hours. Following incubation, the bacterial suspensions are diluted in MH-Tween™ to obtain a final cell density of 10^7 colony forming units per ml. These diluted suspensions of the different test organisms are distributed to different columns of a microtiter plate, 100 μl per well. The test compounds are dissolved in dimethylsulfoxide (DMSO) at various test concentrations and 2.5 μl of these different DMSO solutions are added to the different wells of the test plates. The plates are covered with plastic films and incubated for 24 h at 36° C. with shaking at 250 rpm. The turbidity developing in the microtiter plates is then examined after 24 h to determine microbial growth.
# Escherichia coli DSM 682 [2] = experiment: as above; type: cell-based; details: read-out: MIC Escherichia coli DSM 682
# Description: as §1, §2
# S. epidermidis Ax 25 [3] = experiment: as above; type: cell-based; details: Staphylococcus epidermidis, read-out: MIC S. epidermidis Ax 25
# Description: as §1, §2
# [4] = test system: Staphylococcus aureus DSM 799; experiment: as above; type: cell-based; details: read-out: MIC Staphylococcus aureus DSM 799
# Description: as §1, §2
# Corynebacterium Ax 7 [5] = experiment: as above; type: cell-based, Corynebacterium group G; details: read-out: MIC Corynebacterium Ax 7
# Description: as §1, §2
# Corynebacterium Ax 15 [6] = experiment: as above; type: cell-based, Corynebacterium jeikeium; details: read-out: MIC Corynebacterium Ax 15
# Description: as §1, §2
# S. epidermidis Ax 25 [7] = experiment: Bactericidal activity (MBC), 60 min contact; type: cell-based, Staphylococcus epidermidis; details: complete kill of inoculum after 60 min incubation; regrowth read after 24 h at 36° C.
# Description: as §1, with “Germany). Escherichia coli DSM 682, Staphylococcus aureus DSM 799, and Corynebacterium xerosis DSM 20170 are obtained from the German-type strain collection.” for “Germany).”
# as §2, with “growth. The minimal concentration of test compounds inhibiting the growth of an organism by at least 80% is determined as the minimal inhibitory concentration (MIC).” for “growth.”
# (§3) The bactericidal effects of the compounds of the present invention are further tested. The bacteria are grown, harvested and diluted under the same conditions as described in example 10 above and added to microtiter plates (100 μl per well), each well containing 2.5 μl of the different DMSO solutions as described above. After 60 min incubation, 0.5 μl of the bacterial culture from each well (corresponding to 5×10^3 cfu in the control treatment) is transferred to a fresh microtiter plate which contained 100 μl per well of fresh medium. The plates are covered with plastic films and incubated for 24 h at 36° C. with shaking at 250 rpm. The turbidity developing in the microtiter plates is then examined after 24 h to determine microbial growth. The minimal concentration of test compounds which completely killed the bacterial inoculum is determined as the minimal bactericidal concentration (MBC).
# C. xerosis DSM 20170 [8] = experiment: Bactericidal activity (MBC), 60 min contact; type: cell-based, Corynebacterium xerosis; details: complete kill of inoculum after 60 min incubation; regrowth read after 24 h at 36° C.
# Description: as §1, with “Germany). Escherichia coli DSM 682, Staphylococcus aureus DSM 799, and Corynebacterium xerosis DSM 20170 are obtained from the German-type strain collection.” for “Germany).”
# as §2, with “growth. The minimal concentration of test compounds inhibiting the growth of an organism by at least 80% is determined as the minimal inhibitory concentration (MIC).” for “growth.”
# as §3
# Corynebacterium Ax 7 [9] = experiment: Bactericidal activity (MBC), 60 min contact; type: cell-based, Corynebacterium group G; details: complete kill of inoculum after 60 min incubation; regrowth read after 24 h at 36° C.
# Description: as §1, with “Germany). Escherichia coli DSM 682, Staphylococcus aureus DSM 799, and Corynebacterium xerosis DSM 20170 are obtained from the German-type strain collection.” for “Germany).”
# as §2, with “growth. The minimal concentration of test compounds inhibiting the growth of an organism by at least 80% is determined as the minimal inhibitory concentration (MIC).” for “growth.”
# as §3
# Corynebacterium Ax 15 [10] = experiment: Bactericidal activity (MBC), 60 min contact; type: cell-based, Corynebacterium jeikeium; details: complete kill of inoculum after 60 min incubation; regrowth read after 24 h at 36° C.
# Description: as §1, with “Germany). Escherichia coli DSM 682, Staphylococcus aureus DSM 799, and Corynebacterium xerosis DSM 20170 are obtained from the German-type strain collection.” for “Germany).”
# as §2, with “growth. The minimal concentration of test compounds inhibiting the growth of an organism by at least 80% is determined as the minimal inhibitory concentration (MIC).” for “growth.”
# as §3
# Aspergillus niger = experiment: Antifungal (fungistatic) activity, MIC; type: cell-based; details: growth inhibition by at least 80%, 48 h, Saboureaud liquid medium, 10^5 cfu per ml
# Method: as §2, with “growth. The minimal concentration of test compounds inhibiting the growth of an organism by at least 80% is determined as the minimal inhibitory concentration (MIC).” for “growth.”
# (§4) The fungistatic effects of the compounds of the present invention are tested against the standard strains Candida albicans and Aspergillus niger. The strains are maintained on Potato dextrose agar plates. Plates are incubated at 30° C. for a period of 72 hours. The fungal inoculum is then swabbed from the plates and suspended in Saboureaud liquid medium and incubated again at 30° C. for 24 hours in the case of C. albicans. For A. niger the inoculum containing the fungal spores is directly harvested from the agar plates and suspended in distilled water. The inoculum is then diluted in Saboureaud liquid medium to obtain a final cell density of 10^5 colony forming units per ml. The test for fungistatic activity using differently concentrated DMSO stock solutions in microtiter plates is then conducted as described in example 10 for the bacteriostatic activity. The turbidity developing in the microtiter plates is then examined after 48 h to determine fungal growth. The minimal concentration of test compounds inhibiting the growth of an organism by at least 80% is determined as the minimal inhibitory concentration (MIC).
# Candida albicans = experiment: Antifungal (fungistatic) activity, MIC; type: cell-based; details: growth inhibition by at least 80%, 48 h, Saboureaud liquid medium, 10^5 cfu per ml
# Method: as §2, with “growth. The minimal concentration of test compounds inhibiting the growth of an organism by at least 80% is determined as the minimal inhibitory concentration (MIC).” for “growth.”
# as §4
# Escherichia coli DSM 682 [11] = experiment: Bactericidal activity (MBC), 60 min contact; type: cell-based; details: complete kill of inoculum after 60 min incubation; regrowth read after 24 h at 36° C.
# Description: as §1, with “Germany). Escherichia coli DSM 682, Staphylococcus aureus DSM 799, and Corynebacterium xerosis DSM 20170 are obtained from the German-type strain collection.” for “Germany).”
# as §2, with “growth. The minimal concentration of test compounds inhibiting the growth of an organism by at least 80% is determined as the minimal inhibitory concentration (MIC).” for “growth.”
# as §3
# [12] = test system: Staphylococcus aureus DSM 799; experiment: Bactericidal activity (MBC), 60 min contact; type: cell-based; details: complete kill of inoculum after 60 min incubation; regrowth read after 24 h at 36° C.
# Description: as §1, with “Germany). Escherichia coli DSM 682, Staphylococcus aureus DSM 799, and Corynebacterium xerosis DSM 20170 are obtained from the German-type strain collection.” for “Germany).”
# as §2, with “growth. The minimal concentration of test compounds inhibiting the growth of an organism by at least 80% is determined as the minimal inhibitory concentration (MIC).” for “growth.”
# as §3
# [13] = DSM20170, growth inhibition by at least 80%, 24 h at 36° C., MH-Tween, 10^7 cfu per ml
# [14] = DSM682, growth inhibition by at least 80%, 24 h at 36° C., MH-Tween, 10^7 cfu per ml
# [15] = AX25, growth inhibition by at least 80%, 24 h at 36° C., MH-Tween, 10^7 cfu per ml
# [16] = DSM799, growth inhibition by at least 80%, 24 h at 36° C., MH-Tween, 10^7 cfu per ml
# [17] = AX7, growth inhibition by at least 80%, 24 h at 36° C., MH-Tween, 10^7 cfu per ml
# [18] = AX15, growth inhibition by at least 80%, 24 h at 36° C., MH-Tween, 10^7 cfu per ml
SMILES,MIC (C. xerosis DSM 20170 [1]; [13]) [µg/mL],MIC (Escherichia coli DSM 682 [2]; [14]) [µg/mL],MIC (S. epidermidis Ax 25 [3]; [15]) [µg/mL],"MIC [4, 16] [µg/mL]",MIC (Corynebacterium Ax 7 [5]; [17]) [µg/mL],MIC (Corynebacterium Ax 15 [6]; [18]) [µg/mL],MBC S. epidermidis Ax 25 (S. epidermidis Ax 25 [7]),MBC C. xerosis DSM 20170 (C. xerosis DSM 20170 [8]),MBC Corynebacterium Ax 7 (Corynebacterium Ax 7 [9]),MBC Corynebacterium Ax 15 (Corynebacterium Ax 15 [10]),MIC A. niger (Aspergillus niger),MIC C. albicans (Candida albicans),"MIC (C. xerosis DSM 20170 [1]; DSM20170, 24 h) [µg/mL]","MIC (Escherichia coli DSM 682 [2]; DSM682, 24 h) [µg/mL]","MIC (S. epidermidis Ax 25 [3]; AX25, 24 h) [µg/mL]","MIC ([4]; DSM799, 24 h) [µg/mL]","MIC (Corynebacterium Ax 7 [5]; AX7, 24 h) [µg/mL]","MIC (Corynebacterium Ax 15 [6]; AX15, 24 h) [µg/mL]",MBC Escherichia coli DSM 682 (Escherichia coli DSM 682 [11]),MBC Staphylococcus aureus DSM 799 [12]
"CCCCC(CC)COC(=O)CO (centres unmarked) [Compound 1., Hydroxy-acetic acid 2-ethyl-hexyl ester]",1250,1250,1250,2500,1250,1250,0.25 % (weight/volume),0.125 % (weight/volume),0.125 % (weight/volume),0.125 % (weight/volume),0.125 % (weight/volume),0.0625 % (weight/volume),–,–,–,–,–,–,–,–
"CCCCC(CC)COC(=O)CN (centres unmarked) [Compound 4., 2-Ethyl-hexyloxycarbonylmethyl-ammonium chloride]",–,–,–,–,–,–,0.25 % (weight/volume),>0.25 % (weight/volume),0.25 % (weight/volume),0.25 % (weight/volume),–,–,310,630,630,630,310,310,0.125 % (weight/volume),0.25 % (weight/volume)
"CCCCCCC(CCCC)COC(=O)CO (centres unmarked) [Compound 2., Hydroxy-acetic acid 2-butyl-octyl ester]",80,> 2500,80,310,80,40,>0.25 % (weight/volume),>0.25 % (weight/volume),>0.25 % (weight/volume),>0.25 % (weight/volume),–,–,–,–,–,–,–,–,–,–
"CCCCCCC(CCCC)COC(=O)CN (centres unmarked) [Compound 5., 2-Butyl-octyloxycarbonylmethyl-ammonium chloride]",–,–,–,–,–,–,0.004 % (weight/volume),0.004 % (weight/volume),0.002 % (weight/volume),0.002 % (weight/volume),0.0039 % (weight/volume),0.0078 % (weight/volume),20,20,20,80,10,10,0.004 % (weight/volume),0.004 % (weight/volume)
"CCCCCCCCCCCC(=O)OCC(O)CO (centres unmarked) [Compound C1, Dodecanoic acid 2,3-dihydroxy-propyl ester, reference compound]",–,–,–,–,–,–,–,–,–,–,–,–,320,> 5000,< 80,80,160,1250,–,–
"Oc1cc(Cl)ccc1Oc1ccc(Cl)cc1Cl [Compound C4, Triclosan, reference compound]",–,–,–,–,–,–,–,–,–,–,–,–,15,5,0.15,5,30,30,–,–
"CCCCCCCCC(CCCCCC)COC(=O)CN (centres unmarked) [Compound 6., 2-Hexyl-decyloxycarbonylmethyl-ammonium chloride]",–,–,–,–,–,–,0.002 % (weight/volume),0.002 % (weight/volume),0.0005 % (weight/volume),0.0005 % (weight/volume),0.002 % (weight/volume),0.0156 % (weight/volume),10,20,5,20,5,5,0.016 % (weight/volume),0.004 % (weight/volume)
"CCCCCCCCC(CCCCCC)COC(=O)CO (centres unmarked) [Compound 3., Hydroxy-acetic 2-hexyl-decyl ester]",> 2500,> 2500,≤ 19,> 2500,2500,39,>0.25 % (weight/volume),>0.25 % (weight/volume),>0.25 % (weight/volume),>0.25 % (weight/volume),–,–,–,–,–,–,–,–,>0.25 % (weight/volume),>0.25 % (weight/volume)

# Source: patent publication US7459581B2, “Anti-bacterial compounds” (Givaudan S.A., priority 2004, dated 2008)
